The record followed here is patent US20140194460A1, “TREATMENT OF ENDOMETRIOSIS” (Ferring B.V., priority 2009, published 2014).

SMILES strings stand for the structures. Several values for one entry are separate records, joined by “and”; a condition that tells them apart may be missing. Equal entries are not always repeated. Entries after “also recorded” stand apart in the source; their conditions may differ.

Holding throughout (type): in vivo, human
Assay [1] deals with peritoneal red endometriotic lesions. Put plainly: Macroscopic analysis: appearance and surface area of index endometriotic lesions at L1 and L2. How it is done: Operative L1 and L2 were performed by two experienced surgeons using modern laparoscopic equipment and the surgeries were recorded by video. The severity of the disease was established according to the Revised American Society for Reproductive Medicine classification of endometriosis: […] (16). During L1, 4-6 index peritoneal red lesions were identified before surgical manipulation started. Half of the index lesions were surgically removed and stored as described below. The remaining half index lesions were left behind and marked with an unabsorbable silk knot sature approximately 1 cm away from them. All non-index lesions were subsequently removed and discarded. […] Thus the study continued with 10 patients after L1. One patient discontinued treatment. At the end of treatment, the L2 was performed and video recorded. During surgery the silk knot was identified in all patients, the suture removed and the area containing the index lesion left behind surgically excised. If significant adhesion formation was detected, lysis of adhesion was performed. The index lesions removed at L1 and L2 were fixed in formalin (approximately 75% of each lesion tissue) for histological verification and descriptive analysis of endometriosis. Formalin fixed samples were also employed for immunohistochemical analysis and subsequent quantification of vascularisation, vessel immatureness, Drd2 expression, cell proliferation, VEGFR2 expression and VEGFR2 activation by techniques well known in the art. The remaining portion of each lesion tissue (25%) was homogenized in Trizol and cryopreserved at −80° C. for subsequent Superarray QF-PCR analysis. All laparoscopies were recorded with a Karl Storz (Germany) videocamera. […] Eligible frames were captured, copied to a PC computer and opened with ImagePro Plus Version 6.03 (Media Cybernetics, Silver Spring, Md., USA) software for image processing. The size of the black or grey cap served as a reference to measure the changes in surface induced by quinagolide at L2 over the lesions left behind during L1.

For assay [2], the system named is endometriotic lesions. Nature of the assay: Histological analysis and Superarray QF-PCR expression analysis of index lesions removed at L1 and L2. As for the experimental part: At the end of treatment, the L2 was performed and video recorded. During surgery the silk knot was identified in all patients, the suture removed and the area containing the index lesion left behind surgically excised. If significant adhesion formation was detected, lysis of adhesion was performed. The index lesions removed at L1 and L2 were fixed in formalin (approximately 75% of each lesion tissue) for histological verification and descriptive analysis of endometriosis. Formalin fixed samples were also employed for immunohistochemical analysis and subsequent quantification of vascularisation, vessel immatureness, Drd2 expression, cell proliferation, VEGFR2 expression and VEGFR2 activation by techniques well known in the art. The remaining portion of each lesion tissue (25%) was homogenized in Trizol and cryopreserved at −80° C. for subsequent Superarray QF-PCR analysis.

Assay [3] relates to Ca125. Put plainly: Ca125 level before and after treatment. To be noted: per patient; after oral 25/50/75 micrograms/day titrated treatment, 18-20 weeks. As for the experimental part:
1] Laparoscopy 1: an endometriotic implant was biopsied, and a second endometriotic implant, similar to the biopsied one, was marked with a non-absorbable suture. Pictures were taken before and after surgery from all individuals. The marked implant was photographed (e.g. FIG. 1A). The biopsy sample was analysed as described below. An assessment of ASRM stage pre-treatment was taken. The PRL level (μg/mL) and Ca125 level (IU/ml) for each patient was measured pre-treatment, by known methods. 3] Laparoscopy 2: in which the second (marked) implant was biopsied. The marked implant was photographed (e.g. FIG. 1B). The biopsy sample was analysed as described below. A second assessment of the ASRM stage post-treatment was completed. The PRL level (μg/mL) and Ca125 level (IU/ml) for each patient was measured post-treatment, by known methods.

In assay [4] the test system is dopamine receptor 2 (DAR2). Nature of the assay: DAR2 expression in endometriotic lesions by staining. To be noted: after versus before treatment, FIG. 5. How it is done: DAR2 expression in human endometriotic lesions was measured by staining, by methods well known in the art (FIG. 5, bottom).
Assay [5] concerns PRL. Nature of the assay: Serum PRL level before and after treatment. The note with it: per patient; after oral 25/50/75 micrograms/day titrated treatment, 18-20 weeks. As for the experimental part: 1] Laparoscopy 1: an endometriotic implant was biopsied, and a second endometriotic implant, similar to the biopsied one, was marked with a non-absorbable suture. Pictures were taken before and after surgery from all individuals. The marked implant was photographed (e.g. FIG. 1A). The biopsy sample was analysed as described below. An assessment of ASRM stage pre-treatment was taken. The PRL level (μg/mL) and Ca125 level (IU/ml) for each patient was measured pre-treatment, by known methods. 3] Laparoscopy 2: in which the second (marked) implant was biopsied. The marked implant was photographed (e.g. FIG. 1B). The biopsy sample was analysed as described below. A second assessment of the ASRM stage post-treatment was completed. The PRL level (μg/mL) and Ca125 level (IU/ml) for each patient was measured post-treatment, by known methods. During the four month treatment period, i.e. between L1 and L2, patients were monthly monitored in our clinic to assess severity of common side effects of Drd2-A like dizziness, nausea and vomiting. During these visits, blood was drawn for subsequent EIA measurement of serum PRL, a marker of the level of Drd2 activity, to monitor compliance with taking the medication.

In assay [6] the test system is endometriosis. Nature of the assay: ASRM classification of endometriosis before and after treatment (pilot study). To be noted: per patient (9 women with hyperprolactinemia and endometriosis); oral 25 then 50 then 75 micrograms/day, total 18-20 weeks; stage IV most severe, stage I least severe. As for the experimental part:
1] Laparoscopy 1: an endometriotic implant was biopsied, and a second endometriotic implant, similar to the biopsied one, was marked with a non-absorbable suture. Pictures were taken before and after surgery from all individuals. The marked implant was photographed (e.g. FIG. 1A). The biopsy sample was analysed as described below. An assessment of ASRM stage pre-treatment was taken. The PRL level (μg/mL) and Ca125 level (IU/ml) for each patient was measured pre-treatment, by known methods.
3] Laparoscopy 2: in which the second (marked) implant was biopsied. The marked implant was photographed (e.g. FIG. 1B). The biopsy sample was analysed as described below. A second assessment of the ASRM stage post-treatment was completed. The PRL level (μg/mL) and Ca125 level (IU/ml) for each patient was measured post-treatment, by known methods.
Operative L1 and L2 were performed by two experienced surgeons using modern laparoscopic equipment and the surgeries were recorded by video. The severity of the disease was established according to the Revised American Society for Reproductive Medicine classification of endometriosis: […] (16). During L1, 4-6 index peritoneal red lesions were identified before surgical manipulation started. Half of the index lesions were surgically removed and stored as described below. […]

For assay [7], the system named is vessels in endometriotic lesions. Put plainly: Vascularisation of biopsy samples by CD31 immunofluorescence/immunohistochemistry. To be noted: after versus before treatment, FIG. 2. As for the experimental part:
The vascularisation effects of the quinagolide were assessed by immunofluorescence/immunohistochemistry on the biopsy samples taken before and after treatment, by methods well known in the art. The CD31(+) signal was used which specifically stains for vessels; vessels are stained brown. In order to quantify vascularisation at least 10 random 40× microscopic fields per sample were photographed and analysed using Image pro-plus software. Areas of interest corresponding to vessels (brown stain) were segmented and marked; and those corresponding to non vascularised areas were segmented and marked differently. The marked image was then analysed to show the % vascularised area per tissue, and the results for samples before and after treatment are shown in FIG. 2.

Assay [8] has as its system proliferating cells (Ki67+) in endometriotic implants. Nature of the assay: Proliferative activity by Ki-67 immunocytochemistry. The note with it: after versus before treatment, FIG. 3.
Procedure: Immunocytochemistry with Ki-67 (monoclonal IgG1 DAKO Corp., Denmark) antibody was performed in order to evaluate the proliferative activity of the samples, by methods well known in the art. […] The images obtained show proliferating cells as positive for Ki67 with nuclear (brown/black) staining. At least 10 random 40× microscopic fields per sample were photographed and analysed. Areas of interest corresponding to proliferating cells (Ki67+) were segmented and marked, and counted.
The mark [9] stands for this setting: L2 versus L1, results not shown.

Take `CCCN1C[C@H](NS(=O)(=O)N(CC)CC)C[C@H]2Cc3c(O)cccc3C[C@@H]21` [quinagolide, (3R,4aR,10aS)-3-(Diethylsulfamoylamino)-6-hydroxy-1-propyl-3,4,4a,5,10,10a-hexahydro-2H-benzo[g]quinoline]: in assay [1] (9 patients, after 18-20 weeks treatment), the “Decrease of mean total surface area (size) of index lesions, L2 versus L1” value turned out to be 68%. In addition, the “Mean of the total surface area of index lesions measured during L2” value in assay [1] (9 patients, vanished lesions counted as 100% size reduction, L1 value 36.09±20.56 mm^2, p<0.05) is on record as 11.57±12.54 mm^2. In assay [1] (after 18-20 weeks treatment), this compound displayed a Lesions vanishing of 35%. In assay [1] (out of 15 lesions recovered at L2), the “Number of recovered index lesions showing reduction in size compared to L1” value amounted to 13. Also, in assay [1] (out of 23 red index lesions labelled at L1), the “Number of red index lesions vanished at L2” value was 8. In assay [1] (out of the 9 patients), the “Number of patients with all index endometriotic lesions absent during L2” value was 2 and the “Number of patients with vanished lesions combined with persisting lesions decreased in size” value is 3. Moreover, the PAI-1 expression result in assay [2] (L2 lesion) is recorded as “down-regulated”. In assay [2] (L2 lesions), the “Histological analysis of lesions” value is listed as “signs of tissue degeneration”. Moreover, in assay [2] (setting [9]), the “Expression of Drd2 and antiangiogenic cytokine CXCL10” value is “upreguilating”; the “Expression of VEGF/VEGFR2 and proangiogenic cytokines CCL2, RUNX1 and AGGF1” value is given as “downregulated”. For the same compound, the “Ca125 level after treatment” value in assay [3] was 25.9 IU/ml and 15.5 IU/ml and 18 IU/ml and 21.1 IU/ml and 22 IU/ml and 24.1 IU/ml and 20.4 IU/ml and 29.9 IU/ml and 24.9 IU/ml. In assay [4], the “Expression of the dopamine receptor 2 (DAR2) in endometriotic lesions” value is “increases the expression”. Further, the “PRL level after treatment” value in assay [5] was <0.6 μg/mL (2×) and 15.1 μg/mL and 14 μg/mL and 6.5 μg/mL and <0.1 μg/mL and 6.4 μg/mL and 1.1 μg/mL and 28.6 μg/mL. The ASRM post treatment entry in assay [6] is listed as “Stage II; also recorded: Stage I; also recorded: Stage III”. Besides, the “Vascularisation of the endometriotic sample (% vascularised area, CD31)” value in assay [7] was “significant decrease in vascularisation”. Also, in assay [8], the “Cell proliferation (Ki-67 positive cells per microscopic field)” value was “trend towards reduced cell proliferation”.
